Assay results reported in US20060128614A1, “Antimicrobial peptides with reduced hemolysis and methods of their use” (priority 2002, published 2006).
Converted amounts (≈) assume the structure as drawn. Where two headings read alike, the source gives them in different places. Non-standard residues stand in square brackets, D forms with d. Residues, ends and D or L forms follow the SMILES beside them. 2Nal = N[C@@H](Cc1ccc2ccccc2c1)C(=O)O

Assays:
[1] = system: human red blood cells (RBC); format: cell-based
Description: Pac-401, Pac-403, Pac-625 and Pac-626 were tested for hemolysis against human red blood cells (RBC). The RBCs with EDTA were rinsed 3 times with PBS (800 g, 10 min) and re-suspended in PBS. The RBCs were diluted into 10% with phosphate-buffered saline and placed […] into each eppendorf. The peptides dissolved in PBS were then added to 50 μl of 10% solution of RBCs and incubated for an hour at 37° C. (final RBC concentration, 5% v/v). The samples were centrifuged at 800 g for 10 min […]. Various concentrations of peptides were incubated with pretreated RBC and the percentage of hemolysis determined.

E. coli = format: cell-based, Escherichia coli
Description: (§1) The in vitro antimicrobial activities of antimicrobial agents were tested using standard NCCLS bacterial and fungi inhibition assays or minimum inhibition concentration (MIC) tests. The MIC value is the lowest concentration of peptide at which the visible growth of test organisms was inhibited and reduced. Overnight cultures of the test organisms were diluted to produce an inoculum containing approximately […] in Meuller-Hinton broth (MHB). From the peptide stock solution, serial dilutions of the peptides into […] were prepared and all wells of a 96-well microtiter plate were subsequently inoculated with the diluted culture of the test organisms. After 18 hours of incubation at 37°, the results were assayed for turbidity as an indicator of cell growth. MIC values for the peptides are shown in Table 3 and Table 4 and FIGS. 1(A), 1(B), 1 (C) and 1 (D) show survival rates for Pac-625 and Pac-626.

[2] = system: outer membrane of E. coli; assay: NPN uptake assay, outer membrane permeabilization; format: cell-based; conditions: intact cells of E. coli
Description: The outer membrane permeabilization activity of the peptide variants was determined by the 1-N-phenylnaphthylamine (NPN) uptake assay, using intact cells of E. coli. […] Since NPN is hydrophobic, it provides a direct measurement of the degree of outer membrane permeability. E. coli take up little or no NPN in a general condition. In the presence of permeabilizer compounds (EDTA, polymyxin B, Neomycin, or antimicrobial peptides), NPN partitioned into the bacterial outer membrane results in an increase in fluorescence. Fluorescence will vary with the concentration of peptide.
One ml of overnight culture was used to inoculate 50 ml of media and incubated at 37° C. with shaking. The culture was permitted to grow to an OD600 of 0.4 to 0.6, cells were spun down at 3500 rpm for 10 minutes, washed, and re-suspended in buffer to an OD600 of 0.5. The OD600 was recorded, 1 ml of cells (OD600=0.5) was added to the cuvette and measured after 2-5 seconds. 20 μl NPN 0.5 mM, shaken to mix, was added and measured after 2-5 seconds. 10 ul antibiotic 100× desired final concentration was added, shaken to mix, and measured until the maximal value was reached within 1 to 5 minutes. The concentration of peptide leading to 50% of the maximum increase in NPN uptake was recorded as the P50.

B. subtilis = format: cell-based, Bacillus subtilis
Description: as §1

Candida albicans = format: cell-based
Description: as §1

S. aureus = format: cell-based, Staphylococcus aureus
Description: as §1

S. epidermidis = format: cell-based, Staphylococcus epidermidis
Description: as §1

[3] = qualitative statement
[4] = system: Gram-positive and Gram-negative bacteria; assay: Antimicrobial activity of Trp template peptides; format: cell-based; conditions: qualitative statement
B. cereus = format: cell-based, Bacillus cereus
Description: as §1

Row | SMILES | % lysis @ 5 μg/ml [1] | % lysis @ 50 μg/ml [1] | % lysis @ 500 μg/ml [1] | MIC against E. coli (E. coli) | MIC against E. coli (E. coli; 18 h) | P50 (concentration of peptide leading to 50% of the maximum increase in NPN uptake) [2] | MIC B. subtilis (B. subtilis) | MIC Candida albicans (Candida albicans) | MIC against S. aureus (S. aureus) | MIC against S. aureus (S. aureus; 18 h) | MIC S. epidermidis (S. epidermidis) | hemolytic activity [3] | antimicrobial activity [4] | MIC B. cereus (B. cereus) | MIC S. aureus (S. aureus)
1 | CC[C@H](C)[C@H](NC(=O)[C@H](Cc1ccc2ccccc2c1)NC(=O)[C@H](CCCNC(=N)N)NC(=O)[C@@H](NC(=O)[C@H](Cc1ccc2ccccc2c1)NC(=O)[C@H](CCCNC(=N)N)NC(=O)[C@H](CCCNC(=N)N)NC(=O)[C@H](Cc1ccc2ccccc2c1)NC(=O)[C@H](CCCCN)NC(C)=O)C(C)C)C(N)=O [Pac-625 L, K (2-Nal) R R (2-Nal) V R (2-Nal) I] (Ac-K[2Nal]RR[2Nal]VR[2Nal]I-NH2) | 0.82% | 7.3% | 15% | 2 µg/mL (≈ 1.37 µM) | 2 µg/mL (≈ 1.37 µM) | 2 µg/mL | 4 µg/mL (≈ 2.74 µM) | 16 µg/mL (≈ 11 µM) | 4 µg/mL (≈ 2.74 µM) | 4 µg/mL (≈ 2.74 µM) | 2 µg/mL (≈ 1.37 µM) |  |  |  | 
2 | CC[C@H](C)[C@H](NC(=O)[C@H](Cc1c[nH]c2ccccc12)NC(=O)[C@H](CCCNC(=N)N)NC(=O)[C@@H](NC(=O)[C@H](Cc1c[nH]c2ccccc12)NC(=O)[C@H](CCCNC(=N)N)NC(=O)[C@H](CCCNC(=N)N)NC(=O)[C@H](Cc1c[nH]c2ccccc12)NC(=O)[C@H](CCCCN)NC(C)=O)C(C)C)C(N)=O [Pac-525, Ac-KWRRWVRW1-NH2] (Ac-KWRRWVRWI-NH2) |  |  |  |  |  |  |  |  |  |  |  | reduced hemolytic activity | improved activity against both Gram-positive and Gram-negative bacteria |  | 
3 | CC[C@H](C)[C@H](NC(C)=O)C(=O)N[C@@H](Cc1ccc2ccccc2c1)C(=O)N[C@@H](CCCNC(=N)N)C(=O)N[C@H](C(=O)N[C@@H](Cc1ccc2ccccc2c1)C(=O)N[C@@H](CCCNC(=N)N)C(=O)N[C@@H](CCCNC(=N)N)C(=O)N[C@@H](Cc1ccc2ccccc2c1)C(=O)N[C@@H](CCCCN)C(N)=O)C(C)C [Pac-626 L, I (2-Nal) R V (2-Nal) R R (2-Nal) K] (Ac-I[2Nal]RV[2Nal]RR[2Nal]K-NH2) | 0.81% | 7.2% | 14% | 4 µg/mL (≈ 2.74 µM) | 4 µg/mL (≈ 2.74 µM) | 2 µg/mL |  | 32 µg/mL (≈ 21.9 µM) | 4 µg/mL (≈ 2.74 µM) | 4 µg/mL (≈ 2.74 µM) |  |  |  | 4 µg/mL (≈ 2.74 µM) | 4 µg/mL (≈ 2.74 µM)
